Experiment [1] deals with T1, Glucocorticoid Receptor (Homo sapiens, UniProt P04150).
T1 sequence (P04150 1-777): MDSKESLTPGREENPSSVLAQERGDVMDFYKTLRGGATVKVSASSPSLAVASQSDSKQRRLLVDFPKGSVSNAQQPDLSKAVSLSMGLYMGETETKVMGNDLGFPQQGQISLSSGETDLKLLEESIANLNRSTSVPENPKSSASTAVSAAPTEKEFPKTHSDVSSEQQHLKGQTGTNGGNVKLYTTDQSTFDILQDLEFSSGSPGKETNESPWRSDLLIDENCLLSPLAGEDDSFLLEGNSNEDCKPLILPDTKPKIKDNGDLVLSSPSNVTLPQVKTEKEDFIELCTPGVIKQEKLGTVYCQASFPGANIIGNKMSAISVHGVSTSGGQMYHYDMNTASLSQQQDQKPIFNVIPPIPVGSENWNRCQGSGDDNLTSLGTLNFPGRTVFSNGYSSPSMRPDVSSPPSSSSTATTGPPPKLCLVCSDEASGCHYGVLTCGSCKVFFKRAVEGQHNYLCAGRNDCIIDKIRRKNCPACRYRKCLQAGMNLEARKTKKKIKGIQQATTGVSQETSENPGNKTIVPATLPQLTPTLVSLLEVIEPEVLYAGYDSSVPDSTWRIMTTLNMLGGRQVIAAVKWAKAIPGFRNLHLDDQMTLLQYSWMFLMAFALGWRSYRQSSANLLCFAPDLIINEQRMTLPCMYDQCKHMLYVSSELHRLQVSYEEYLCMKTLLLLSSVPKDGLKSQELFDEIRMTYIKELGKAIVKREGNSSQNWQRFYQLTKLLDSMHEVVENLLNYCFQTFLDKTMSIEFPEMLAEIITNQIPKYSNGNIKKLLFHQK
Briefly: Transactivation assay, A549 cells. It is filed as cell-based. The following applies: A549, read-out: Transactivation, A549 Emax.

Experiment [2] concerns the target T2, PR (progesterone receptor) (Homo sapiens, UniProt P06401).
T2 sequence (P06401 1-933): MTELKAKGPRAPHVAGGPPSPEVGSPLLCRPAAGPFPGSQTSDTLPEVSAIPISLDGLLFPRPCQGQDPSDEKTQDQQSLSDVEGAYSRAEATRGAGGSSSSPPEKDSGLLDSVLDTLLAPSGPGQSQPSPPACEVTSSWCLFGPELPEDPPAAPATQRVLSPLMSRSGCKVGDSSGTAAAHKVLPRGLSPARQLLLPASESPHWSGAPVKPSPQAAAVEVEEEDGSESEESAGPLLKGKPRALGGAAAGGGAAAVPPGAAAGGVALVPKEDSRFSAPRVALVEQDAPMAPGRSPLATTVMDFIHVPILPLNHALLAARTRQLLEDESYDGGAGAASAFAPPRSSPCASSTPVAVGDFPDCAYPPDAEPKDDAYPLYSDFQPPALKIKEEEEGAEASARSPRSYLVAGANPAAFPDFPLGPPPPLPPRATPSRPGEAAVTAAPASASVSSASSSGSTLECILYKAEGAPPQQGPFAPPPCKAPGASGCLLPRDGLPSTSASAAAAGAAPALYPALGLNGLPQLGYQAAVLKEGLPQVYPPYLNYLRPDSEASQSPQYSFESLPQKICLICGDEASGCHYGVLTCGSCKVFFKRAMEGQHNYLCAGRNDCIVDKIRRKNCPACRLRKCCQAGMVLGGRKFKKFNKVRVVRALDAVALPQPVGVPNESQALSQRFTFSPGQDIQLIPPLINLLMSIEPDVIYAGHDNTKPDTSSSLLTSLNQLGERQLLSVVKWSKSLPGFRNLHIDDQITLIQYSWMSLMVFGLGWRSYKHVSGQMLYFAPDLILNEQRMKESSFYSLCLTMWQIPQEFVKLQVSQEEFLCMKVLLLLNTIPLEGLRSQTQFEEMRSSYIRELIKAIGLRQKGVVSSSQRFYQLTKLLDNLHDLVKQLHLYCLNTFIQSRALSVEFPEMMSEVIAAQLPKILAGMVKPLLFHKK
Briefly: PR binding study. The source says: The following abbreviations are used in Table II: MR, mineralocorticoid receptor; GR, glucocorticoid receptor; and PR, progesterone receptor.

In experiment [3] the test system is A549 cells. Briefly: A549 cell molecular profiling experiment. It is filed as cell-based. The following applies: 100 nM.
Experiment [4] deals with CA77 cells. Description: CA77 cell microarray profiling. The format is cell-based, rat. Here is the method:
In order to reduce false positives, progesterone, estradiol, and aldosterone served as out-groups for non-specific effects. Samples were collected at both 6 hours and 24 hours after contacting the CA77 cells with a compound.

In experiment [5] the target is T1, Glucocorticoid Receptor. Description: Transactivation assay, MDA cells. Further details: host or cells: MDA cells. The format is cell-based. The following applies: read-out: Transactivation, MDA Emax.
Experiment [6] has as its target T1, Glucocorticoid Receptor. Description: Transrepression assay, COS cells. Details: host or cells: COS cells. Particulars: COS. It is filed as cell-based.

Structures are written as SMILES. Where only a bound is given, the exact number is not on record here.

The source of these data is US20100040552A1, “METHODS TO EVALUATE GLUCOCORTICOID RECEPTOR AGONISTS AND ANTAGONISTS FOR EFFECTS ON NEURON-LIKE CELLS” (ROSETTA INPHARMATICS LLC, priority 2005, published 2010).

As usually defined, the Emax is the maximal effect, on the per cent scale that the assay sets. A word on the IC50: it is the concentration that gives 50% inhibition. The low end stands for greater potency in that assay, the high end for weaker potency in that assay.

`C[C@@H]1C[C@H]2[C@@H]3CCC4=CC(=O)C=C[C@]4(C)[C@@]3(F)[C@@H](O)C[C@]2(C)[C@@]1(O)C(=O)CO` [Dexamethasone, dexamethasone]: in experiment [1], the Emax was 118%. The same compound had an IC50 in experiment [2] greater than 1000 nM. Besides, in experiment [3] (set of 1091 genes), the “Up-regulated genes in category DMSO (<0%)” value is listed as 0, the “Up-regulated genes in category Full (≧90%)” value is on record as 1087, the “Up-regulated genes in category High (66.7-90%)” value is 4 and the “Up-regulated genes in category Low (0-33.3%)” value stood at 0. In addition, the “Up-regulated genes in category Middle (33.3-66.7%)” value in experiment [3] (set of 1091 genes) is on record as 0. Further, in experiment [3] (set of 1249 genes), the “Down-regulated genes in category DMSO (<0%)” value was 0, the “Down-regulated genes in category Full (≧90%)” value was 1237, the “Down-regulated genes in category High (66.7-90%)” value was determined as 12 and the “Down-regulated genes in category Low (0-33.3%)” value was found to be 0. In experiment [3] (set of 1249 genes), the “Down-regulated genes in category Middle (33.3-66.7%)” value stood at 0. Further, in experiment [4], the “Sult1a1 up-regulation as detected by microarray” value was 11 fold. For the same compound, the maximal response (Emax) in experiment [5] stood at 125%. In addition, the Emax at 0.3 µM in experiment [6] (read-out: Transrepression, COS % Emax, 0.3 μM) worked out at 100%. For the same compound, the Emax at 1 µM in experiment [6] (read-out: Transrepression, COS % Emax, 1 uM) came to 100%.
